For data set [1], the system named is MCF-10A. In words: Cytotoxicity against human MCF10A cells assessed as reduction in cell growth measured after 48 hrs by CCK8 assay. The data set is classed as cell-based. On the technique in general: Formazan colour is commonly taken as a measure of viable cells.
The nature of data set [2]: Acute toxicity in iv dosed KM mouse administered as single dose measured for 14 days. The data set is classed as organism-based. The note with it: in vivo.
Data set [3] can be described thus: Toxicity in KM mouse assessed as clinical changes at <262 mg/kg, ip administered as single dose measured for 14 days. The data set is classed as organism-based. To be noted: in vivo, 336 h.
Data set [4] deals with A549. The experiment in a line: Induction of apoptosis in human A549 cells assessed as late apoptotic cells at 40 uM measured after 48 hrs by Annexin V-FITC/propidium iodide staining based FACSClibur flow cytometry analysis (reference value: 3.63 %). The data set is classed as functional. For orientation: In flow cytometry, cells or beads pass a laser one at a time.
The test system of data set [5] is MCF7. The experiment in a line: Antiproliferative activity against human MCF7 cells assessed as reduction in cell growth measured after 48 hrs by CCK8 assay. The data set is classed as functional, cell-based. To be noted: MCF7, 48 h.
In data set [6] the test system is A549. In words: Induction of apoptosis in human A549 cells assessed as necrotic cells at 40 uM measured after 48 hrs by Annexin V-FITC/propidium iodide staining based FACSClibur flow cytometry analysis (reference value: 0.49 %). The data set is classed as functional.
Data set [7] has as its system A549. The experiment in a line: Induction of apoptosis in human A549 cells assessed as necrotic cells at 40 uM measured after 24 hrs by Annexin V-FITC/propidium iodide staining based FACSClibur flow cytometry analysis (reference value: 0.37 %). The data set is classed as functional.

Data on one molecule can be found in ChEMBL document CHEMBL4616720 (J Med Chem, 2020).

On to `O=C(C[C@@H](CC1CCCC1)C(=O)N1CC2(CC2)C[C@H]1c1nc(-c2ccc(F)cc2C(F)(F)F)no1)NO`, for which the values for the half-maximal inhibitory concentration (IC50) in data set [1] and in data set [5] were 18.1 µM and 4.65 µM, respectively. The LD50 (commonly the dose at which mortality reaches 50%) at 336 h in data set [2] lay in the range of 287 to 452 mg/kg. The Activity entry in data set [3] is “Non-Toxic”; in data set [4], 5.55%; in data set [6] it was 1.01%; in data set [7] it was 1.12%.
